In patent publication US9611269B2, “Azetidinyl phenyl, pyridyl or pyrazinyl carboxamide derivatives as JAK inhibitors” (Incyte Corporation, priority 2011, dated 2017):

What was measured:
Type in all cases: biochemical
[1] = target: human JAK2 (a.a. 828-1132) catalytic domain (Homo sapiens (Human), UniProt O60674); assay: In vitro JAK kinase assay (HTRF, 1 mM ATP), JAK2; details: at 1 mM ATP
Description: (§1) The catalytic activity of JAK1, JAK2 or JAK3 was assayed by measuring the phosphorylation of a biotinylated peptide. The phosphorylated peptide was detected by homogenous time resolved fluorescence (HTRF). […] Reactions were carried out at room temperature for 1 hour and then stopped with 20 μL 45 mM EDTA, 300 nM SA-APC, 6 nM Eu-Py20 in assay buffer (Perkin Elmer, Boston, Mass.). Binding to the Europium labeled antibody took place for 40 minutes and HTRF signal was measured on a Fusion plate reader (Perkin Elmer, Boston, Mass.).

[2] = tested on: human JAK1 (a.a. 837-1142) catalytic domain; assay: In vitro JAK kinase assay (HTRF, 1 mM ATP), JAK1; details: ratio of JAK2 IC50 to JAK1 IC50 at 1 mM ATP;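 also: kinase activity followed as phosphorylation of a biotin-tagged peptide, detected by HTRF with Eu-labelled anti-phosphotyrosine antibody and SA-APC, after 1 h reaction at room temperature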
Description: as §1

[3] = target: human JAK1 (a.a. 837-1142) catalytic domain (Homo sapiens, UniProt P23458); assay: In vitro JAK kinase assay (HTRF, 1 mM ATP), JAK1; details: at 1 mM ATP;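 also: kinase activity followed as phosphorylation of a biotin-tagged peptide, detected by HTRF with Eu-labelled anti-phosphotyrosine antibody and SA-APC, after 1 h reaction at room temperature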
human JAK1 (a.a. 837-1142) catalytic domain (Homo sapiens, UniProt P23458), sequence (P23458 whole entry, looked up, the tested form may be a part): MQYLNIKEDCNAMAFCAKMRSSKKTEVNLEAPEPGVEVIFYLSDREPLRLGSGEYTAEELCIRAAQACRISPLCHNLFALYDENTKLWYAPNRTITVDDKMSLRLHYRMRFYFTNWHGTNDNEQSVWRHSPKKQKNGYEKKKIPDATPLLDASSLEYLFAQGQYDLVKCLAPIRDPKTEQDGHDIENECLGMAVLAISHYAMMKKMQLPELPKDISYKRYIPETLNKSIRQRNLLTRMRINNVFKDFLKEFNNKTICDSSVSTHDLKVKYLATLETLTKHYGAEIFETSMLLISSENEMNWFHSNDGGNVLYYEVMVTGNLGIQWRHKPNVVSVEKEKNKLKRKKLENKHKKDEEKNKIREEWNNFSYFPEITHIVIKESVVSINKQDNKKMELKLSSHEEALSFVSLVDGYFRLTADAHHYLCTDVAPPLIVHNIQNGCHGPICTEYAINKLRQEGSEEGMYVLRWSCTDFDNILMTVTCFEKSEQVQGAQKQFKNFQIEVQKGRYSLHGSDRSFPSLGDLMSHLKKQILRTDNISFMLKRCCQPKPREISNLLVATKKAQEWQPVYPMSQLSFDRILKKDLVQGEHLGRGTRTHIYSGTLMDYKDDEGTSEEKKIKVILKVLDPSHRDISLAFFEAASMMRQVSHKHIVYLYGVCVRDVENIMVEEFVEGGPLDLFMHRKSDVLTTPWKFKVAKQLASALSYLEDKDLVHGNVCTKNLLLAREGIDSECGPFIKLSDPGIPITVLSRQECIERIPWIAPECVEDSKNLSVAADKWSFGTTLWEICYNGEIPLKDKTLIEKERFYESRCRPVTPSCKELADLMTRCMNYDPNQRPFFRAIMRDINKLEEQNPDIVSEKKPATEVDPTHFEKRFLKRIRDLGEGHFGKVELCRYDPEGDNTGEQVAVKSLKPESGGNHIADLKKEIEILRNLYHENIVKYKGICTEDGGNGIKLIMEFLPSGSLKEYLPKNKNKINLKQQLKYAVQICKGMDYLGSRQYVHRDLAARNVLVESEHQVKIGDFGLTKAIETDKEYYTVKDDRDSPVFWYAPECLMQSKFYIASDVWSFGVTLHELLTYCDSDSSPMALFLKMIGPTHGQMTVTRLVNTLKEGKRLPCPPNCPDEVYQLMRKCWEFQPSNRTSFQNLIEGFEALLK
Description: as §1

human JAK2 (a.a. 828-1132) catalytic domain, sequence (O60674 828-1132): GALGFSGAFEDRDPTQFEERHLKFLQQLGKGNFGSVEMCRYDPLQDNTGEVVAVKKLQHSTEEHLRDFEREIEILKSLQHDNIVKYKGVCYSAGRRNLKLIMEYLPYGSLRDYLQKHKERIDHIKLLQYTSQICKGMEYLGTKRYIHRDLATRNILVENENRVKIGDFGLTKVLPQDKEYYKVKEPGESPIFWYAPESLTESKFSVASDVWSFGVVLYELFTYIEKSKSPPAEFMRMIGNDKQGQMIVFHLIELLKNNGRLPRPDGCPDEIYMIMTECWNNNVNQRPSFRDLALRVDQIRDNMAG

| IC50 [1] | JAK2/JAK1 [2] | IC50 [3] | SMILES |
| --- | --- | --- | --- |
| 10 to 40 nM | A (A means greater than or equal to 10) | < 10 nM | C[C@@H](NC(=O)c1cnc(N2CC(CC#N)(n3cc(-c4ncnc5[nH]ccc45)cn3)C2)cn1)C(F)(F)F [Example 30, 5-{3-(Cyanomethyl)-3-[4-(7H-pyrrolo[2,3-d]pyrimidin-4-yl)-1H-pyrazol-1-yl]azetidin-1-yl}-N-[(1R)-2,2,2-trifluoro-1-methylethyl]pyrazine-2-carboxamide] |
| ≤ 10 nM | A (A means greater than or equal to 10) | < 10 nM | C[C@H](NC(=O)c1cnc(N2CC(CC#N)(n3cc(-c4ncnc5[nH]ccc45)cn3)C2)cn1)C(F)(F)F [Example 31, 5-{3-(Cyanomethyl)-3-[4-(7H-pyrrolo[2,3-d]pyrimidin-4-yl)-1H-pyrazol-1-yl]azetidin-1-yl}-N-[(1S)-2,2,2-trifluoro-1-methylethyl]pyrazine-2-carboxamide] |
| ≤ 10 nM | A (A means greater than or equal to 10) | < 10 nM | N#CCC1(n2cc(-c3ncnc4[nH]ccc34)cn2)CN(c2cnc(C(=O)N[C@@H](C3CC3)C(F)(F)F)cn2)C1 [Example 32, 5-{3-(Cyanomethyl)-3-[4-(7H-pyrrolo[2,3-d]pyrimidin-4-yl)-1H-pyrazol-1-yl]azetidin-1-yl}-N-[(1S)-1-cyclopropyl-2,2,2-trifluoroethyl]pyrazine-2-carboxamide] |
| 10 to 40 nM | A (A means greater than or equal to 10) | < 10 nM | N#CCC1(n2cc(-c3ncnc4[nH]ccc34)cn2)CN(c2cnc(C(=O)NC3(C(F)(F)F)CC3)cn2)C1 [Example 33, 5-{3-(Cyanomethyl)-3-[4-(7H-pyrrolo[2,3-d]pyrimidin-4-yl)-1H-pyrazol-1-yl]azetidin-1-yl}-N-[1-(trifluoromethyl)cyclopropyl]pyrazine-2-carboxamide] |
| 10 to 40 nM | A (A means greater than or equal to 10) | < 10 nM | C[C@H](NC(=O)c1cnc(N2CC(CC#N)(n3cc(-c4ccnc5[nH]ccc45)cn3)C2)cn1)C(F)(F)F [Example 35, 5-{3-(Cyanomethyl)-3-[4-(1H-pyrrolo[2,3-b]pyridin-4-yl)-1H-pyrazol-1-yl]azetidin-1-yl}-N-[(1S)-2,2,2-trifluoro-1-methylethyl]pyrazine-2-carboxamide] |
| 10 to 40 nM | A (A means greater than or equal to 10) | < 10 nM | N#CCC1(n2cc(-c3ncnc4[nH]ccc34)cn2)CN(c2ccc(C(=O)N[C@@H](C3CC3)C(F)(F)F)cc2)C1 [Example 38, 4-{3-(Cyanomethyl)-3-[4-(7H-pyrrolo[2,3-d]pyrimidin-4-yl)-1H-pyrazol-1-yl]azetidin-1-yl}-N-[(1S)-1-cyclopropyl-2,2,2-trifluoroethyl]benzamide] |
| 10 to 40 nM | A (A means greater than or equal to 10) | < 10 nM | C[C@H](NC(=O)c1cnc(N2CC(CC#N)(n3cc(-c4ccnc5[nH]ccc45)cn3)C2)cn1)C1CC1 [Example 41, 5-{3-(Cyanomethyl)-3-[4-(1H-pyrrolo[2,3-b]pyridin-4-yl)-1H-pyrazol-1-yl]azetidin-1-yl}-N-[(1S)-1-cyclopropylethyl]pyrazine-2-carboxamide] |
| 10 to 40 nM | A (A means greater than or equal to 10) | < 10 nM | N#CCC1(n2cc(-c3ccnc4[nH]ccc34)cn2)CN(c2cnc(C(=O)N[C@@H](C3CC3)C(F)(F)F)cn2)C1 [Example 42, 5-{3-(Cyanomethyl)-3-[4-(1H-pyrrolo[2,3-b]pyridin-4-yl)-1H-pyrazol-1-yl]azetidin-1-yl}-N-[(1S)-1-cyclopropyl-2,2,2-trifluoroethyl]pyrazine-2-carboxamide] |

Further lines, the molecule ahead of its results:

| SMILES | IC50 [1] | JAK2/JAK1 [2] | IC50 [3] |
| --- | --- | --- | --- |
| C[C@H](NC(=O)c1ccc(N2CC(CC#N)(n3cc(-c4ncnc5[nH]ccc45)cn3)C2)cc1F)C(F)(F)F [Example 22, 4-{3-(Cyanomethyl)-3-[4-(7H-pyrrolo[2,3-d]pyrimidin-4-yl)-1H-pyrazol-1-yl]azetidin-1-yl}-2-fluoro-N-[(1S)-2,2,2-trifluoro-1-methylethyl]benzamide] | 10 to 40 nM | A (A means greater than or equal to 10) | < 10 nM |
| CCNC(=O)c1ccc(N2CC(CC#N)(n3cc(-c4ncnc5[nH]ccc45)cn3)C2)cn1 [Example 24, 5-{3-(Cyanomethyl)-3-[4-(7H-pyrrolo[2,3-d]pyrimidin-4-yl)-1H-pyrazol-1-yl]azetidin-1-yl}-N-ethylpyridine-2-carboxamide] | ≤ 10 nM | A (A means greater than or equal to 10) | < 10 nM |
| CC[C@@H](C)NC(=O)c1ccc(N2CC(CC#N)(n3cc(-c4ncnc5[nH]ccc45)cn3)C2)cc1 [Example 25, 4-{3-(Cyanomethyl)-3-[4-(7H-pyrrolo[2,3-d]pyrimidin-4-yl)-1H-pyrazol-1-yl]azetidin-1-yl}-N-[(1R)-1-methylpropyl]benzamide bis(trifluoroacetate)] | ≤ 10 nM | A (A means greater than or equal to 10) | < 10 nM |
| CC(C)NC(=O)c1ccc(N2CC(CC#N)(n3cc(-c4ccnc5[nH]ccc45)cn3)C2)c(F)c1 [Example 27, 4-{3-(Cyanomethyl)-3-[4-(1H-pyrrolo[2,3-b]pyridin-4-yl)-1H-pyrazol-1-yl]azetidin-1-yl}-3-fluoro-N-isopropylbenzamide] | ≤ 10 nM | A (A means greater than or equal to 10) | < 10 nM |
| C[C@H](NC(=O)c1cc(F)c(N2CC(CC#N)(n3cc(-c4ncnc5[nH]ccc45)cn3)C2)cc1F)C(F)(F)F [Example 28, 4-{3-(Cyanomethyl)-3-[4-(7H-pyrrolo[2,3-d]pyrimidin-4-yl)-1H-pyrazol-1-yl]azetidin-1-yl}-2,5-difluoro-N-[(1S)-2,2,2-trifluoro-1-methylethyl]benzamide] | ≤ 10 nM | A (A means greater than or equal to 10) | < 10 nM |
| C[C@@H](NC(=O)c1cc(F)c(N2CC(CC#N)(n3cc(-c4ncnc5[nH]ccc45)cn3)C2)cc1F)C(F)(F)F [Example 29, 4-{3-(Cyanomethyl)-3-[4-(7H-pyrrolo[2,3-d]pyrimidin-4-yl)-1H-pyrazol-1-yl]azetidin-1-yl}-2,5-difluoro-N-[(1R)-2,2,2-trifluoro-1-methylethyl]benzamide] | ≤ 10 nM | A (A means greater than or equal to 10) | < 10 nM |
| N#CCC1(n2cc(-c3ccnc4[nH]ccc34)cn2)CN(c2cnc(C(=O)NCC(F)(F)F)cn2)C1 [Example 36, 5-{3-(Cyanomethyl)-3-[4-(1H-pyrrolo[2,3-b]pyridin-4-yl)-1H-pyrazol-1-yl]azetidin-1-yl}-N-(2,2,2-trifluoroethyl)pyrazine-2-carboxamide] | 10 to 40 nM | A (A means greater than or equal to 10) | < 10 nM |
| N#CCC1(n2cc(-c3ncnc4[nH]ccc34)cn2)CN(c2cc(F)c(C(=O)NCC(F)F)cc2F)C1 [Example 37, 4-{3-(Cyanomethyl)-3-[4-(7H-pyrrolo[2,3-d]pyrimidin-4-yl)-1H-pyrazol-1-yl]azetidin-1-yl}-N-(2,2-difluoroethyl)-2,5-difluorobenzamide] | ≤ 10 nM | A (A means greater than or equal to 10) | < 10 nM |
| C[C@@H](NC(=O)c1ccc(N2CC(CC#N)(n3cc(-c4ncnc5[nH]ccc45)cn3)C2)cc1F)C1CC1 [Example 39, 4-{3-(Cyanomethyl)-3-[4-(7H-pyrrolo[2,3-d]pyrimidin-4-yl)-1H-pyrazol-1-yl]azetidin-1-yl}-N-[(1R)-1-cyclopropylethyl]-2-fluorobenzamide] | 10 to 40 nM | A (A means greater than or equal to 10) | < 10 nM |
| N#CCC1(n2cc(-c3ccnc4[nH]ccc34)cn2)CN(c2ccc(C(=O)NC3(C(F)(F)F)CC3)nc2)C1 [Example 40, 5-{3-(Cyanomethyl)-3-[4-(1H-pyrrolo[2,3-b]pyridin-4-yl)-1H-pyrazol-1-yl]azetidin-1-yl}-N-[1-(trifluoromethyl)cyclopropyl]pyridine-2-carboxamide] | 10 to 40 nM | A (A means greater than or equal to 10) | < 10 nM |
